The target in experiment [1] is T1, 5-hydroxytryptamine receptor 2C (Homo sapiens, UniProt P28335).
T1 sequence (P28335 whole entry): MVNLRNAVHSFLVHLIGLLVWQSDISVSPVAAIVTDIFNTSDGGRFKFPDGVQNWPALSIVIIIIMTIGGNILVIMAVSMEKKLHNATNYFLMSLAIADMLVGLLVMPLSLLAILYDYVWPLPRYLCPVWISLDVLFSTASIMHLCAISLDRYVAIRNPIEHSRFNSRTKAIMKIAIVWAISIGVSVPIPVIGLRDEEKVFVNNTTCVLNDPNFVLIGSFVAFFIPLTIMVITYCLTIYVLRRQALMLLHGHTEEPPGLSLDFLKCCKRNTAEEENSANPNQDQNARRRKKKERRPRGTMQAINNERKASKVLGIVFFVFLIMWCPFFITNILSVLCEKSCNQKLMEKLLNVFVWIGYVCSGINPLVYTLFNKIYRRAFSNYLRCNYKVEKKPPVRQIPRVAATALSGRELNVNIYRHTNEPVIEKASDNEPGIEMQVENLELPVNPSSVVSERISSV
Nature of the experiment: DRUGMATRIX: Serotonin (5-Hydroxytryptamine) 5-HT2C radioligand binding (ligand: [3H] Mesulergine). The experiment is classed as cell membranes, CHO-K1, Membrane. The following applies: Not Active = under 50% inhibition at 10 µM; for Ki: read-out: Ki.

Experiment [2] deals with Vascular endothelial growth factor receptor 1 (Homo sapiens, UniProt P17948). Type of experiment: cell-based. The following applies: huvec.
Vascular endothelial growth factor receptor 1, sequence (P17948 whole entry): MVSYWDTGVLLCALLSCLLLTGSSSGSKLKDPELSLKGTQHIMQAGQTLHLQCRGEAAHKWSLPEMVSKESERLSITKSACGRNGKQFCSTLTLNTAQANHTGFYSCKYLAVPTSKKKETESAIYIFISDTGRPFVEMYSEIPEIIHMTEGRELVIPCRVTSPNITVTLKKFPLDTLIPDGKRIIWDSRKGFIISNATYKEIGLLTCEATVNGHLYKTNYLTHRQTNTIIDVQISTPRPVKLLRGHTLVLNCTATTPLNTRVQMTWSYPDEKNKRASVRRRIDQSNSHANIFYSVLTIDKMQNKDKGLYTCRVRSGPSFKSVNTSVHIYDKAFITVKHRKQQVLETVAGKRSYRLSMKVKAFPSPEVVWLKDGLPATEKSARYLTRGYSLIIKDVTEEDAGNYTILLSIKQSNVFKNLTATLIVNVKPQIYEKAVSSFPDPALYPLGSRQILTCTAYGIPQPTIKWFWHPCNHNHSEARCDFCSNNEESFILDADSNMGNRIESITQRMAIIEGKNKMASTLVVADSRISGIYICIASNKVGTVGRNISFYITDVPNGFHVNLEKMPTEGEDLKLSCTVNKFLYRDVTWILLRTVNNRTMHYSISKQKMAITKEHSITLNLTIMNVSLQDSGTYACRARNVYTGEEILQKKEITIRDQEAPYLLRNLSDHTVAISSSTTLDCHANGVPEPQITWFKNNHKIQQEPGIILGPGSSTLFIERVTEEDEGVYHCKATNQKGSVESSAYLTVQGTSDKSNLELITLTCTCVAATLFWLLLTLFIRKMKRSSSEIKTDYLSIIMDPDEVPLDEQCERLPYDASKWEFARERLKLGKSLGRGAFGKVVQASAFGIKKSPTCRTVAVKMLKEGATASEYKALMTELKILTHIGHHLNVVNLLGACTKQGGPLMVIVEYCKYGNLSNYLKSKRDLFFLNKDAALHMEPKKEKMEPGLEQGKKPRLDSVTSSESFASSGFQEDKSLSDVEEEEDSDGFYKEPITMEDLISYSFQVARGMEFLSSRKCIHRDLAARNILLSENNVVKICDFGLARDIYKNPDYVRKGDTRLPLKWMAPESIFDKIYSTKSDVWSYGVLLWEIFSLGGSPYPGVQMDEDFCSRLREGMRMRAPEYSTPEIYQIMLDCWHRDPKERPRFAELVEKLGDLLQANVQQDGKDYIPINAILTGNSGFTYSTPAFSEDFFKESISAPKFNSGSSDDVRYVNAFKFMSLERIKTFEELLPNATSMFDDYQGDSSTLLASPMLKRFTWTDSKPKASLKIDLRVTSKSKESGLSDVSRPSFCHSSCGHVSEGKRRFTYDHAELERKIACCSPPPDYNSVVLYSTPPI
Experiment [3] addresses Prostaglandin G/H synthase 1 (Homo sapiens, UniProt P23219). In words: biochemical. Type of experiment: tissue-based, Platelet. As to conditions: platelet.
In experiment [4] the target is cGMP-specific 3',5'-cyclic phosphodiesterase (Homo sapiens, UniProt O76074). In words: DRUGMATRIX: Phosphodiesterase PDE5 enzyme inhibition (substrate: [3H]cGMP + cGMP). The experiment is classed as tissue-based, Platelet. As to conditions: Not Active = under 50% inhibition at 10 µM.
For experiment [5], the target named is T2, Interstitial collagenase (Homo sapiens, UniProt P03956).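 Also: MMP-1 enzyme inhibition assay using a peptide substrate; in other assays of this panel Not Active means under 50% inhibition at 10 µM.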
T2 sequence (P03956 whole entry): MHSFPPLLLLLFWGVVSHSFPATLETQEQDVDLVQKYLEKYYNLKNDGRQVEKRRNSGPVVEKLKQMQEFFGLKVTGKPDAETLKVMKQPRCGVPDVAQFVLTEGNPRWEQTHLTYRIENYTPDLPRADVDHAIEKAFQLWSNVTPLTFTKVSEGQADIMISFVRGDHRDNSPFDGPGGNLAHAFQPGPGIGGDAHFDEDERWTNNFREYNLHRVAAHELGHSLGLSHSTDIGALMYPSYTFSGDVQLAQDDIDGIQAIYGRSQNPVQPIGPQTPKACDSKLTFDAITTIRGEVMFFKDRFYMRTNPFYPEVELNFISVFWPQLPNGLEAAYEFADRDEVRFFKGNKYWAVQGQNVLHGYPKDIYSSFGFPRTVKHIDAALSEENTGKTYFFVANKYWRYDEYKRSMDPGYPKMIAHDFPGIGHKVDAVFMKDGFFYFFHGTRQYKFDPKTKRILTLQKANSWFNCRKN
Nature of the experiment: biochemical. Type of experiment: tissue-based, Rheumatoid synovial fibroblasts.

Experiment [6] addresses Tyrosine-protein kinase Lck (Homo sapiens, UniProt P06239). Nature of the experiment: DRUGMATRIX: Protein Tyrosine Kinase, LCK enzyme inhibition (substrate: Poly(Glu:Tyr)). Type of experiment: cell-based, Insect cells. As to conditions: Not Active = under 50% inhibition at 10 µM.
Experiment [7] concerns the target C-C chemokine receptor type 2 (Homo sapiens, UniProt P41597). The experiment is classed as cell membranes, Membrane. The following applies: cho-k1. Also: in other assays of this panel Not Active means under 50% inhibition at 10 µM.

The source of these data is ChEMBL document CHEMBL1909046, “DrugMatrix in vitro pharmacology data”.

A word on the IC50: it is the point on the concentration scale where inhibition reaches its midpoint. One may read the Ki as the equilibrium dissociation constant of an inhibitor or competing ligand from its target.

C-C chemokine receptor type 2, sequence (P41597 whole entry): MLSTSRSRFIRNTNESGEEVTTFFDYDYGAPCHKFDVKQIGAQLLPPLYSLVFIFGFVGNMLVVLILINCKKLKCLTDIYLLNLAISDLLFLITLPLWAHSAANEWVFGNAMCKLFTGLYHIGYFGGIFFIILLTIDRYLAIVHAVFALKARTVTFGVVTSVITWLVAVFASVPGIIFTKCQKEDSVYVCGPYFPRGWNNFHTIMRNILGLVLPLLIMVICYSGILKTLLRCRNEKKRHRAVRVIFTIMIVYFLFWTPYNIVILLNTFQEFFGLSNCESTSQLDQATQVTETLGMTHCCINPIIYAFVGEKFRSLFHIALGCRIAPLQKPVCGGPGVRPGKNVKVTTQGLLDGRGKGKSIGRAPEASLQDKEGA
Tyrosine-protein kinase Lck, sequence (P06239 whole entry): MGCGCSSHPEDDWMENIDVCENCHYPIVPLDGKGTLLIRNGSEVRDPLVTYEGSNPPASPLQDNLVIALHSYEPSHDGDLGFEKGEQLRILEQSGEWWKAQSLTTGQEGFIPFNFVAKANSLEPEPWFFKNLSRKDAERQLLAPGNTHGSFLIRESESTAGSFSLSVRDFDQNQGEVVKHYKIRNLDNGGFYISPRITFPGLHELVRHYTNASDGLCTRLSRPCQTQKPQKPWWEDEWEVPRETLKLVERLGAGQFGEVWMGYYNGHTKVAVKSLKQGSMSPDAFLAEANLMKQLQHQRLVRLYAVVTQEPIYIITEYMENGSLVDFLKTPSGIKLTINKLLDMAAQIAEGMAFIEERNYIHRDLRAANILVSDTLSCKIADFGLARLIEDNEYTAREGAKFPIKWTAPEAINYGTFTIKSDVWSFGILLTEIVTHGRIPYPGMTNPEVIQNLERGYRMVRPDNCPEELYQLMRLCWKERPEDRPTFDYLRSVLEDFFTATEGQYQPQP
Prostaglandin G/H synthase 1, sequence (P23219 whole entry): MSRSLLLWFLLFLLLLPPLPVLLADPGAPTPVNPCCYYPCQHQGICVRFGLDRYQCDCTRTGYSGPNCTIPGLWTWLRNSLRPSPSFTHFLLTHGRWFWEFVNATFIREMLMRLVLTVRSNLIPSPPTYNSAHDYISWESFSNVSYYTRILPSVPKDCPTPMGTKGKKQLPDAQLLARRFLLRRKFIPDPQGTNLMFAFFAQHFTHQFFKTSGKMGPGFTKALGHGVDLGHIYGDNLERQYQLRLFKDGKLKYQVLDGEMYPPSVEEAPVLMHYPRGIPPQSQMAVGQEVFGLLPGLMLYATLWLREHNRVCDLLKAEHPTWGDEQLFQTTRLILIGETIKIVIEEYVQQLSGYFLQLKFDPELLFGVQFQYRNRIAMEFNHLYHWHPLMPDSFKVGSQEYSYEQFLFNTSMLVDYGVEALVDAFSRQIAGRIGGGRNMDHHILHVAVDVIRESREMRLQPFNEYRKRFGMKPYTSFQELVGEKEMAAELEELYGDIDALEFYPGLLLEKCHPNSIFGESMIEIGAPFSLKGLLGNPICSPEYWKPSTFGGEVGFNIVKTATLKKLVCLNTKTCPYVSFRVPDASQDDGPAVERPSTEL

Consider `CCCCC(=O)N(Cc1ccc(-c2ccccc2-c2nnn[nH]2)cc1)[C@H](C(=O)O)C(C)C`, for which the IC50 entry in experiment [1] (cho-k1), in experiment [2], in experiment [3], in experiment [4] (platelet), in experiment [5] and in experiment [6] (insect cells) was “Not Active” each time.

On to `O=C(O)COc1ccc(C(=O)c2cccs2)c(Cl)c1Cl`, for which the IC50 entry in experiment [1] (cho-k1), in experiment [2], in experiment [7], in experiment [3], in experiment [4] (platelet) and in experiment [5] was “Not Active” each time. The IC50 result in experiment [6] (insect cells) is “Not Active”.

As for `CN1[C@@H]2CC[C@H]1C[C@@H](OC(c1ccccc1)c1ccccc1)C2` [BENZTROPINE], the IC50 in experiment [1] (read-out: IC50) was 0.061 µM; in experiment [2] it was “Not Active”; in experiment [7], “Not Active”; in experiment [3], “Not Active”; in experiment [4] (platelet), “Not Active”; in experiment [5], “Not Active”. Also, the IC50 result in experiment [6] (insect cells) is listed as “Not Active”. Also, the Ki in experiment [1] worked out at 0.032 µM.

On to `C[C@@](Cc1ccc(O)c(O)c1)(NN)C(=O)O.O` [CARBIDOPA], for which the IC50 entry in experiment [1] (cho-k1), in experiment [2], in experiment [7], in experiment [3], in experiment [4] (platelet) and in experiment [5] was “Not Active” each time. In experiment [6] (read-out: IC50), the IC50 amounted to 6.8 µM.

With `CN1CCN(C2=Nc3cc(Cl)ccc3Nc3ccccc32)CC1` [CLOZAPINE], the IC50 entry in experiment [2], in experiment [7], in experiment [3], in experiment [4] (platelet), in experiment [5] and in experiment [6] (insect cells) was “Not Active” each time.

On to `CC(C)NC[C@@H](O)COc1cccc2ccccc12` [DEXPROPRANOLOL], for which the IC50 entry in experiment [1] (cho-k1), in experiment [2], in experiment [7], in experiment [3], in experiment [4] (platelet) and in experiment [5] was “Not Active” throughout. The IC50 entry in experiment [6] (insect cells) is listed as “Not Active”.

In the case of `CC(C)NC[C@H](O)COc1cccc2ccccc12` [LEVOPROPRANOLOL], the IC50 entry in experiment [2], in experiment [7], in experiment [3], in experiment [4] (platelet), in experiment [5] and in experiment [6] (insect cells) was “Not Active” in each case.

Take `O=C(O)CCCCC1CCSS1` (stereo not drawn) [LIPOIC ACID, ALPHA]: the IC50 result in experiment [1] (cho-k1), in experiment [2], in experiment [7], in experiment [3], in experiment [4] (platelet) and in experiment [5] was “Not Active” throughout. Also, the IC50 entry in experiment [6] (insect cells) is reported as “Not Active”.

In the case of `CN(C)C(=O)C(CCN1CCC(O)(c2ccc(Cl)cc2)CC1)(c1ccccc1)c1ccccc1` [LOPERAMIDE], the IC50 entry in experiment [1] (cho-k1), in experiment [2], in experiment [7], in experiment [3], in experiment [4] (platelet) and in experiment [5] was “Not Active” throughout. Moreover, in experiment [6] (insect cells), the IC50 entry is “Not Active”.

With `Clc1ccc(COC(Cn2ccnc2)c2ccc(Cl)cc2Cl)c(Cl)c1` (stereo not given) [MICONAZOLE], the IC50 is 5.31 µM in experiment [1] (read-out: IC50); “Not Active” in experiment [2]; “Not Active” in experiment [7]; “Not Active” in experiment [3]; “Not Active” in experiment [4] (platelet); “Not Active” in experiment [5]. For the same molecule, the IC50 entry in experiment [6] (insect cells) is reported as “Not Active”. In experiment [1], the Ki came to 2.78 µM.

Turning to `OCCOCCN1CCN(C2=Nc3ccccc3Sc3ccccc32)CC1` [QUETIAPINE], the IC50 entry in experiment [2], in experiment [7], in experiment [3], in experiment [4] (platelet), in experiment [5] and in experiment [6] (insect cells) was “Not Active” each time.

For `C[S+]([O-])c1ccc(-c2nc(-c3ccncc3)c(-c3ccc(F)cc3)[nH]2)cc1` (stereo not given) [SB-203580], the IC50 entry in experiment [1] (cho-k1) is “Not Active”; in experiment [7] it was “Not Active”; in experiment [3], “Not Active”; in experiment [4] (read-out: IC50), 11.5 µM; in experiment [5], “Not Active”.
